{"source": "PubChem BioAssay AID2305", "about": "(GlaxoSmithKline (GSK), 2010)", "note": "pIC50: −log10 of the molar value."}
{"test_system": "P. falciparum 3D7 growth, pLDH absorbance", "experiment": "P. falciparum 3D7 growth inhibition, dose response, strain 3D7 (AID 2305)"}
{"smiles": "c1cc(CN2CCN(CCN3CCOCC3)CC2)cc(-c2csc(-c3nc4ccccc4[nH]3)c2)c1", "pIC50": 6.35}
{"smiles": "OC(CNC1CCCCCCC1)c1ccc(Cl)c(Cl)c1", "note": "(stereo unspecified)", "pIC50": 6.68}
{"smiles": "c1ccc(Cn2nnnc2-c2cccc(Nc3ccnc4cc(-c5nccs5)ccc34)c2)cc1", "pIC50": 6.08}
{"smiles": "Cc1cc(N(C)C)nc(Nc2ccc(NC(=O)c3ccc(F)cc3)cc2)n1", "pIC50": 6.15}
{"smiles": "COc1ccc2[nH]cc(C3=CCN(C[C@H]4C[C@@H]4C(=O)c4ccccc4)CC3)c2n1", "pIC50": 6.57}
{"smiles": "Cc1cc(-c2ccc(CN3Cc4ccccc4C3)cc2)ccc1S(=O)(=O)NCCN1CCCC1", "pIC50": 6.01}
{"smiles": "Nc1nc(Nc2cccc(Cl)c2)ncc1C(=O)NCc1ccncc1", "pIC50": 6.08}
{"smiles": "O=C1CCCN1CCCNCc1cccc(-c2ccc(-c3nc4ccc(C(F)(F)F)cc4[nH]3)cc2)c1", "pIC50": 6.52}
{"smiles": "O=C1Nc2cccc3c2C1(CCCCCN1CC=C(c2c[nH]c4ccccc24)CC1)CCC3", "note": "(stereo unspecified)", "pIC50": 6.13}
{"smiles": "CC(C)Cn1c2ccccc2c2nc3nc(N)nc(N)c3nc21", "pIC50": 6.14}
{"smiles": "CCCc1c(C(=O)NC2CCC(CN3CCC(c4c[nH]c5ccccc45)CC3)CC2)cnn1-c1ccccc1", "note": "(stereo unspecified)", "pIC50": 5.75}
{"smiles": "CN1CCN(CC(=O)Nc2cccc(-c3ccc(-c4nc5ccc(C(F)(F)F)cc5[nH]4)cc3)c2)CC1", "pIC50": 6.28}
{"smiles": "CN(C)c1ccc2nc(N)nc(N)c2c1Cl", "pIC50": 6.33}
{"smiles": "CCOC(=O)c1c(NC(=O)c2ccccc2)sc2c(O)c(CN(CC)CC)ccc12", "pIC50": 6.01}
{"smiles": "Cc1ccc2nc(Nc3ccc(Nc4nc5ccc(C)cc5[nH]4)c(C)c3)[nH]c2c1", "pIC50": 6.11}
{"smiles": "COc1cc2c(cc1S(=O)(=O)c1ccc(NC(=O)c3cccc(C(F)(F)F)c3)cc1)CCN(C)CC2", "pIC50": 5.86}
{"smiles": "CCc1cn2c3c(cc(C(=O)N[C@@H](Cc4ccccc4)[C@H](O)CNCc4ccc(C)cc4)cc13)N(C)S(=O)(=O)CC2", "pIC50": 6.26}
{"smiles": "COc1cccc(-n2ncc3c(N/N=C/c4ccc(CN(C)CCN(C)C)cc4)ncnc32)c1", "pIC50": 6.05}
{"smiles": "CCC(C)c1ccc(NC(=O)Nc2ccnc3ccccc23)cc1", "note": "(stereo unspecified)", "pIC50": 6.20}
{"smiles": "CN(C)C(=O)c1ccc(CN(Cc2ccc(OC(C)(C)C)cc2)Cc2ccc3c(c2)OCCO3)cc1", "pIC50": 6.08}
{"smiles": "Cc1nc(-c2ccc(-c3ccc(NC(=O)Nc4ccc(I)c(OCCN(C)C)c4)cc3)c(C)c2)no1", "pIC50": 6.43}
{"smiles": "CC1CN(Cc2ccc(-c3cccc(-c4nc5ccc(F)cc5[nH]4)c3)cc2)CC(C)O1", "note": "(stereo unspecified)", "pIC50": 6.04}
{"smiles": "O=[N+]([O-])c1ccc(C(O)CNCCc2ccccc2)cc1OCc1ccccc1", "note": "(stereo unspecified)", "pIC50": 6.04}
{"smiles": "CCNC[C@H]1CCCN1CCOc1ccc(-n2cnc3cc(-c4ccc(Cl)cc4)sc3c2=O)cc1OC", "pIC50": 6.09}
{"smiles": "O=S(=O)(NCCN1CCCC1)c1ccc(-c2ccc(CNC3Cc4ccccc4C3)cc2)cc1", "pIC50": 6.18}
{"smiles": "Cc1cc(C)cc(CC(=O)N2CCC(n3c(C)nc4ccc(C)cc43)CC2)c1", "pIC50": 6.28}
{"smiles": "COc1ccc2c(NN=Cc3ccccn3)ccnc2c1", "pIC50": 6.43}
{"smiles": "Cc1cc(=O)c2cc(Oc3ccc(OC(F)(F)F)cc3)ccc2[nH]1", "pIC50": 6.00}
{"smiles": "c1csc(-c2nc(N3CCCC3)ncc2-c2ccsc2)n1", "pIC50": 6.68}
{"smiles": "Cc1ccc(C(=O)Nc2cc(C(F)(F)F)cc(C(F)(F)F)c2)cc1[N+](=O)[O-]", "pIC50": 6.03}
{"smiles": "Cc1nnc2c(NC(=O)NC3CCCC3)cc3cc(-c4ccc(CN(C)C)cc4)ccc3n12", "pIC50": 5.83}
{"smiles": "CCOc1cc2c(cc1OCC)C(c1cc(OC)c(O)cc1Cl)NCC2", "note": "(stereo unspecified)", "pIC50": 6.12}
{"smiles": "CN1CCN(Cc2cc(NC(=O)c3ccc(-c4ccc(Cl)cc4Cl)cc3)ccc2-c2ccccc2)CC1", "pIC50": 6.01}
{"smiles": "O=S(=O)(c1cccc(Cl)c1F)N(CCC(O)(C(F)(F)F)C(F)(F)F)Cc1cccc(O)c1", "pIC50": 6.04}
{"smiles": "NC1CCN(CCc2ccc(NS(=O)(=O)c3cccc4ccccc34)cc2)CC1", "pIC50": 5.77}
{"smiles": "NC(=NCc1ccccc1Cl)NCCc1c[nH]c2ccccc12", "pIC50": 6.96}
{"smiles": "O=C(CC1CCCCC1)NCC(NCCCNc1cc(=O)c2ccccc2[nH]1)c1cc(Br)cc(Br)c1", "note": "(stereo unspecified)", "pIC50": 5.98}
{"smiles": "COc1ccc(CN(C)CCCOc2ccc(NC(=O)c3cccc4c(=O)c5cccc(C)c5[nH]c34)cc2)cc1OC", "pIC50": 6.05}
{"smiles": "COc1cc(Nc2ccc3cc(S(=O)(=O)N4CCCCC4C)ccc3n2)cc(OC)c1OC", "note": "(stereo unspecified)", "pIC50": 5.91}
{"smiles": "CN(C)c1ccc(C=Cc2nc(=O)c3ccccc3o2)cc1", "pIC50": 7.40}
{"smiles": "Clc1ccc(Sc2cncnc2N2CCOCC2)cc1", "pIC50": 7.40}
{"smiles": "COc1ccc(C2c3cc(OC)c(OC)cc3C(=NO)C2C)cc1OC", "note": "(stereo unspecified)", "pIC50": 5.93}
{"smiles": "O=C(NCc1cccc(CN2CCOCC2)c1)c1cc(Br)cc(N2CCN(c3ccncc3)CC2)c1", "pIC50": 6.07}
{"smiles": "c1cc(CN2CCN(c3ccncc3)CC2)cc(-c2ccc(-c3nc4ccccc4[nH]3)cc2)c1", "pIC50": 6.82}
{"smiles": "CCn1c(CN2CCN(Cc3ccccc3)CC2)nc2cc(NC(=O)c3cccs3)ccc21", "pIC50": 6.40}
{"smiles": "CC(C)CNCc1cccc(-c2ccccc2CN(C(=O)NCCc2ccccc2)C2CCN(Cc3ccccc3)CC2)c1", "pIC50": 5.93}
{"smiles": "C(=NNc1cc(-c2ccccc2)nc2ccccc12)c1cccnc1", "pIC50": 5.91}
{"smiles": "COc1ccc(OC)c(NC(=O)CSc2nc(-c3ccccc3Cl)ns2)c1", "pIC50": 6.08}
{"smiles": "Cc1nc(N)nc(N)c1C#CC1CCCC1", "pIC50": 6.11}
{"smiles": "CC(=O)c1ccc(N2CCN(CCC3(c4ccc(Cl)c(Cl)c4)COCN(C(=O)c4ccccc4)C3)CC2)cc1", "note": "(stereo unspecified)", "pIC50": 6.04}
{"smiles": "COc1ccc(CCNCCCCCCNCCc2ccc(Cl)cc2)c(Cl)c1OC", "pIC50": 6.08}
